Reference: US20250135006A1, “AMPHIPHILIC TLR7/8 ADJUVANTS AND USES THEREOF” (Pfizer Inc., priority 2023, published 2025)
pEC50: −log10 of the molar value.

How the values were obtained:
[1] = biological target: T1, human toll like receptor 8 (hTLR8) (Homo sapiens, UniProt Q9NR97); experiment: hTLR8 in-vitro functional assay (HEK-Blue hTLR8 SEAP reporter); type: cell-based; settings: HEK-Blue hTLR8 cells, overnight incubation
T1 construct: host or cells: HEK293 (HEK-Blue hTLR8)
T1 sequence (Q9NR97 27-1041): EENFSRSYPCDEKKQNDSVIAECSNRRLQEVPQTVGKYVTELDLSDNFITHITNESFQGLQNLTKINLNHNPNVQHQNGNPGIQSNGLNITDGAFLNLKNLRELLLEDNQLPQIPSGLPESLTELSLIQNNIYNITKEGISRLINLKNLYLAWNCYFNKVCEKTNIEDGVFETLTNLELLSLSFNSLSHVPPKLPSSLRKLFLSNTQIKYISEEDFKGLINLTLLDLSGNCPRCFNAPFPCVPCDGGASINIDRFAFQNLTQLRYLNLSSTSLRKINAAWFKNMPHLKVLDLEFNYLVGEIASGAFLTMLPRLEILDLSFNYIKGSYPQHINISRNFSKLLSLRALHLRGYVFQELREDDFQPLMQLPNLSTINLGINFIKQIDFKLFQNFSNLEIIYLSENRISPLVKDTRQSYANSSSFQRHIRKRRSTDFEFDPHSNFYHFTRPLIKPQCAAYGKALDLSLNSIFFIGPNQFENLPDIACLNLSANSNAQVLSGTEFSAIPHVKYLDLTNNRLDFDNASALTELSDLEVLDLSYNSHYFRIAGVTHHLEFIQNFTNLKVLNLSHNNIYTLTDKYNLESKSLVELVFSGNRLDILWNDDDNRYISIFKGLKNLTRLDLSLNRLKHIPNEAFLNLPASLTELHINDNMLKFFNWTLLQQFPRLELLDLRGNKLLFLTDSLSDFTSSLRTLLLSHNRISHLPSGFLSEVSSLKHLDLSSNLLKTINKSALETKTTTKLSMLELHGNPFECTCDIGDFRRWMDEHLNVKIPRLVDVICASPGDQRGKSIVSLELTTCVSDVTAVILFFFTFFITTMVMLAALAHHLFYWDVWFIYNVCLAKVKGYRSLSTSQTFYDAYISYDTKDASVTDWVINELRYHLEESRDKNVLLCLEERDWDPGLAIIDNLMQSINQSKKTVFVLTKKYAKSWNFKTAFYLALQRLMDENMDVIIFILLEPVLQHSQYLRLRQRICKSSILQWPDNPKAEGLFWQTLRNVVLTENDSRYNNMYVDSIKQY

[2] = biological target: T2, human toll like receptor 7 (hTLR7) (Homo sapiens, UniProt Q9NYK1); experiment: hTLR7 in-vitro functional assay (HEK-Blue hTLR7 SEAP reporter); type: cell-based; settings: HEK-Blue hTLR7 cells, overnight incubation
T2 construct: host or cells: HEK293 (HEK-Blue hTLR7)
T2 sequence (Q9NYK1 27-1049): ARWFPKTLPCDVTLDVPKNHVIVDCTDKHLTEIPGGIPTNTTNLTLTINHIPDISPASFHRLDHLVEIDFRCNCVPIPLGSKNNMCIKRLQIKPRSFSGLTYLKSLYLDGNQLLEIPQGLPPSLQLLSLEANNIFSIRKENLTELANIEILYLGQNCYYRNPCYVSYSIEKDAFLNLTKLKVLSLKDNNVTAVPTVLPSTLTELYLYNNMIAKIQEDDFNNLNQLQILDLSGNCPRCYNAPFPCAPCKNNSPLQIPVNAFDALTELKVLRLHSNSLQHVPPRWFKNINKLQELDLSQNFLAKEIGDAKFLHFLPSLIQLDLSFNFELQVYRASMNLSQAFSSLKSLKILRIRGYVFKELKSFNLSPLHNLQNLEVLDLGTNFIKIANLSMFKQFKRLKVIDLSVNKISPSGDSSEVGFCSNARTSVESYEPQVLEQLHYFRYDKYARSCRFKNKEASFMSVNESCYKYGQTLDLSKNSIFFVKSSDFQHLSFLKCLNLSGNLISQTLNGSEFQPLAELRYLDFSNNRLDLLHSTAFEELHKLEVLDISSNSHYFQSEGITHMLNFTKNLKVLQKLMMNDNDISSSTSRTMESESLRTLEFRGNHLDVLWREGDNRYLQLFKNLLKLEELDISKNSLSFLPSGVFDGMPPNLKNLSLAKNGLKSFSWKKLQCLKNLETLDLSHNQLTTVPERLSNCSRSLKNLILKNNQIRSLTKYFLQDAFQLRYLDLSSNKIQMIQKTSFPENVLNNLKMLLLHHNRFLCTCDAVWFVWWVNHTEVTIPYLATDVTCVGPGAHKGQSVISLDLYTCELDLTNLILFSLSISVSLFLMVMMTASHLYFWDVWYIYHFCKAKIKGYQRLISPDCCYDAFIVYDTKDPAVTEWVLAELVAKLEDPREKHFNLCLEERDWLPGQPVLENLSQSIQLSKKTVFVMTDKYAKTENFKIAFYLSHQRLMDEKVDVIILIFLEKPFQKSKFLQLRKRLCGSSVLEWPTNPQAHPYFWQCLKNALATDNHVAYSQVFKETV

SMILES | pEC50 [1] | pEC50 [2]
CCCCc1nc2c(N)nc3cc(CCCN4CCN(CCCOCCOCCOCCOCCOCCOCCOCCOCCOCCOCCOCCOCCNC(=O)O[C@H]5CC[C@@]6(C)C(=CC[C@H]7[C@@H]8CC[C@H]([C@H](C)CCCC(C)C)[C@@]8(C)CC[C@@H]76)C5)CC4)ccc3c2n1CC(C)(CO)CO [Compound 21, (20R)-cholest-5-en-3beta-yl {39-[4-(3-{4-amino-2-butyl-1-[3-hydroxy-2-(hydroxymethyl)-2-methylpropyl]-1H-imidazo[4,5-c]quinolin-7-yl}propyl)piperazin-1-yl]-3,6,9,12,15,18,21,24,27,30,33,36-dodecaoxanonatriacontan-1-yl}carbamate] | < 4.60 | 6.27
CCCCc1nc2c(N)nc3cc(CCCN4CCN(CCCOCCOCCOCCOCCNC(=O)O[C@H]5CC[C@@]6(C)C(=CC[C@H]7[C@@H]8CC[C@H]([C@H](C)CCCC(C)C)[C@@]8(C)CC[C@@H]76)C5)CC4)ccc3c2n1CC(C)(CO)CO [Compound 22, (20R)-cholest-5-en-3beta-yl {15-[4-(3-{4-amino-2-butyl-1-[3-hydroxy-2-(hydroxymethyl)-2-methylpropyl]-1H-imidazo[4,5-c]quinolin-7-yl}propyl)piperazin-1-yl]-3,6,9,12-tetraoxapentadecan-1-yl}carbamate] | 4.93 | 5.94
CCCCc1nc2c(N)nc3cc(CCCN4CCN(CCCOCCOCCOCCOCCOCCOCCOCCOCCNC(=O)O[C@H]5CC[C@@]6(C)C(=CC[C@H]7[C@@H]8CC[C@H]([C@H](C)CCCC(C)C)[C@@]8(C)CC[C@@H]76)C5)CC4)ccc3c2n1CC(C)(CO)CO [Compound 23, (20R)-cholest-5-en-3beta-yl {27-[4-(3-{4-amino-2-butyl-1-[3-hydroxy-2-(hydroxymethyl)-2-methylpropyl]-1H-imidazo[4,5-c]quinolin-7-yl}propyl)piperazin-1-yl]-3,6,9,12,15,18,21,24-octaoxaheptacosan-1-yl}carbamate] | 4.83 | 5.78
CCCCc1nc2c(N)nc3cc(CCCN4CCN(C(=O)CCOCCOCCOCCOCCOCCOCCOCCOCCOCCOCCOCCOCCOCCOCCOCCOCCOCCOCCOCCOCCOCCOCCOCCOCCOCCOCCOCCOCCOCCOCCOCCOCCOCCOCCOCCOCCNC(=O)CCOCCOCCOCCOCCNC(=O)CCCOc5c(C)c(C)c6c(c5C)CC[C@@](C)(CCC[C@H](C)CCC[C@H](C)CCCC(C)C)O6)CC4)ccc3c2n1CC(C)(CO)CO [Compound 24] | 5.62 | 6.87
CCCCc1nc2c(N)nc3cc(CCCN4CCN(C(=O)CCOCCOCCOCCOCCOCCOCCOCCOCCOCCOCCOCCOCCNC(=O)CCOCCOCCOCCOCCNC(=O)CCCOc5c(C)c(C)c6c(c5C)CC[C@@](C)(CCC[C@H](C)CCC[C@H](C)CCCC(C)C)O6)CC4)ccc3c2n1CC(C)(CO)CO [Compound 25, N-{39-[4-(3-{4-amino-2-butyl-1-[3-hydroxy-2-(hydroxymethyl)-2-methylpropyl]-1H-imidazo[4,5-c]quinolin-7-yl}propyl)piperazin-1-yl]-39-oxo-3,6,9,12,15,18,21,24,27,30,33,36-dodecaoxanonatriacontan-1-yl}-17-oxo-20-({(2R)-2,5,7,8-tetramethyl-2-[(4R,8R)-4,8,12-trimethyltridecyl]-3,4-dihydro-2H-1-benzopyran-6-yl}oxy)-4,7,10,13-tetraoxa-16-azaicosan-1-amide] | 5.08 | 6.51
CCCCc1nc2c(N)nc3cc(CCCN4CCN(CCCOCCOCCOCCOCCOCCOCCOCCOCCOCCOCCOCCOCCOCCOCCOCCOCCOCCOCCOCCOCCOCCOCCOCCOCCNC(=O)CCOCCOCCOCCOCCNC(=O)CCCOc5c(C)c(C)c6c(c5C)CC[C@@](C)(CCC[C@H](C)CCC[C@H](C)CCCC(C)C)O6)CC4)ccc3c2n1CC(C)(CO)CO [Compound 26, N-{75-[4-(3-{4-amino-2-butyl-1-[3-hydroxy-2-(hydroxymethyl)-2-methylpropyl]-1H-imidazo[4,5-c]quinolin-7-yl}propyl)piperazin-1-yl]-3,6,9,12,15,18,21,24,27,30,33,36,39,42,45,48,51,54,57,60,63,66,69,72-tetracosaoxapentaheptacontan-1-yl}-17-oxo-20-({(2R)-2,5,7,8-tetramethyl-2-[(4R,8R)-4,8,12-trimethyltridecyl]-3,4-dihydro-2H-1-benzopyran-6-yl}oxy)-4,7,10,13-tetraoxa-16-azaicosan-1-amide] | < 4.60 | 6.39
CCCCc1nc2c(N)nc3cc(CCCN4CCN(Cc5ccc(NC(=O)[C@H](C)NC(=O)[C@@H](NC(=O)COCCOCCNC(=O)O[C@H]6CC[C@@]7(C)C(=CC[C@H]8[C@@H]9CC[C@H]([C@H](C)CCCC(C)C)[C@@]9(C)CC[C@@H]87)C6)C(C)C)cc5)CC4)ccc3c2n1CC(C)(CO)CO [Compound 27, (3beta)-cholest-5-en-3-yl {(2S,5S)-1-((4-((4-(3-(4-amino-2-butyl-1-(3-hydroxy-2-(hydroxymethyl)-2-methylpropyl)-1H-imidazo[4,5-c]quinolin-7-yl)propyl)piperazin-1-yl)methyl)phenyl)amino)-5-isopropyl-2-methyl-1,4,7-trioxo-9,12-dioxa-3,6-diazatetradecan-14-yl}carbamate] | 5.53 | 5.51
CCCCc1nc2c(N)nc3cc(CCCN4CCN(C(=O)OCc5ccc(NC(=O)[C@H](CCCNC(N)=O)NC(=O)[C@@H](NC(=O)COCCOCCNC(=O)O[C@H]6CC[C@@]7(C)C(=CC[C@H]8[C@@H]9CC[C@H]([C@H](C)CCCC(C)C)[C@@]9(C)CC[C@@H]87)C6)C(C)C)cc5)CC4)ccc3c2n1CC(C)(CO)CO [Compound 28, 4-((12S,15S)-1-(((3beta)-cholest-5-en-3-yl)oxy)-12-isopropyl-1,10,13-trioxo-15-(3-ureidopropyl)-5,8-dioxa-2,11,14-triazahexadecan-16-amido)benzyl 4-(3-(4-amino-2-butyl-1-(3-hydroxy-2-(hydroxymethyl)-2-methylpropyl)-1H-imidazo[4,5-c]quinolin-7-yl)propyl)piperazine-1-carboxylate] | 5.35 | 5.72
CCCCc1nc2c(N)nc3cc(CCCN4CCN(Cc5ccc(NC(=O)[C@H](CCCNC(N)=O)NC(=O)[C@@H](NC(=O)COCCOCCNC(=O)O[C@H]6CC[C@@]7(C)C(=CC[C@H]8[C@@H]9CC[C@H]([C@H](C)CCCC(C)C)[C@@]9(C)CC[C@@H]87)C6)C(C)C)cc5)CC4)ccc3c2n1CC(C)(CO)CO [Compound 29, (3beta)-cholest-5-en-3-yl ((6S,9S)-1-amino-6-((4-((4-(3-(4-amino-2-butyl-1-(3-hydroxy-2-(hydroxymethyl)-2-methylpropyl)-1H-imidazo[4,5-c]quinolin-7-yl)propyl)piperazin-1-yl)methyl)phenyl)carbamoyl)-9-isopropyl-1,8,11-trioxo-13,16-dioxa-2,7,10-triazaoctadecan-18-yl)carbamate] | 5.30 | 6.28
